According to paper PMC12765108, “Establishing selectivity of FAK-paxillin PPI inhibitor using pulldown proteomics and a focal adhesion protein selectivity panel” (Biochemistry and Biophysics Reports, 2025):
“Also recorded” adds a separate entry of the source.

Tests used:
FAK FAT (a.a. 892–1052) = target: T1, FAK FAT (a.a. 892–1052) (Homo sapiens, UniProt Q05397); experiment: SPR direct binding; details: 4.9 nM to […]
T1 construct: FAK FAT (a.a. 892–1052); 6X His (N); made in house; host or cells: E. coli BL21 DE3
T1 sequence (Q05397 892-1052): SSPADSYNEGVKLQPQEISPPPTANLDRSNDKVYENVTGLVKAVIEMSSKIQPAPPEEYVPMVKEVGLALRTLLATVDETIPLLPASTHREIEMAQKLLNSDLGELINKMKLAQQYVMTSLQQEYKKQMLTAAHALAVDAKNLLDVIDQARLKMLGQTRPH
From the text: (§1) Vinculin Tail (VinT) (a.a. 811–1066), Vinculin Head (VinH) (a.a. 1–258), Actopaxin, (PARVA complete protein), beta-parvin (PARVB, total protein), FAK FAT (a.a. 892–1052), and Talin-1 Rod 8 (a.a. 1453–1580) were purified in E. coli BL21 DE3 using 6X-Histag TOPO-100 plasmid constructs with AmpR gene (ThermoFisher). Purification procedures were as previously described. Proteins were purified using NiNTA affinity chromatography (ThermoFisher) followed by size-exclusion chromatography using the Akta Pump 900 system and HiLoad 26/600 SuperDex 75 pg column. Major peaks (Unicorn 3.0 software) were validated using SDS-PAGE stain free imaging (Biorad).
SPR was performed on a Sartorius Pioneer FE instrument as previously described. Briefly, biotinylated UA-1907 was immobilized onto Streptavidin Dextran Hydrogel (SADH) biosensor at a RU = 50. […] Equilibrium dissociation constant (KD) was calculated using Qdat software and 1:1 kinetic binding model.

[1] = system: FA selectivity panel (VinT, VinH, PARVA, PARVB, Talin-1 Rod 8, FAK FAT); experiment: SPR focal adhesion selectivity panel; format: binding
From the text: as §1
SPR was performed on a Sartorius Pioneer FE instrument as previously described. Briefly, biotinylated UA-1907 was immobilized onto Streptavidin Dextran Hydrogel (SADH) biosensor at a RU = 50. Proteins were flowed over at 75 μL/min in running buffer (50 mM Tris pH 8.0, 200 mM NaCl, 5 % glycerol) from 2.5 μM to 4.9 nM. Equilibrium dissociation constant (KD) was calculated using Qdat software and 1:1 kinetic binding model.

FAK-paxillin interaction = details: cellular and biochemical systems; ref [5]; cited from earlier work
FAK FAT domain = system: FAK FAT domain; parameters: method as in PMID 40021642; details: ref [5]; cited from earlier work
Paxillin = experiment: Pulldown (MS and WB), SK-MEL-147 lysate; format: binding
Description: 3000ug of SK-MEL-147 lysates were precleared in 60uL agarose beads for 1 h at 4C. […] Beads were washed with NP40 buffer without inhibitors and proteins were eluted using 63 mM Tris pH 6.8 and 5 % SDS. Elution proteins underwent trypsin digestion and were analyzed in nanoLC-MS/MS at the UA Biological Mass Spectroscopy Core using the Thermo Q Exactive Orbitrap mass spectrometer (MS) coupled to the Thermo Vanquish Neo nano-LC system. Peptide sequences were determined, correlated to SwissProt protein sequences, and normalized in Scaffold Proteomics Discoverer.
Protein Label Free Quantification (LFQ) was represented by Normalized Total Spectra. Fold Enrichment (FE) was calculated using Eq. (1): FE=(PulldownLFQ−EthanolamineControlBeadLFQ)/TotalLysateLFQ
Bead elutions were ran on a 4–20 % TGX Stain Free Gel and imaged via Stain Free Imaging (ChemDoc Biorad Imager) before transfer onto a PVDF membrane (TurboTransfer High MW). Blots were blocked using 5 % BSA in TBS-0.1 % Tween-20. Each primary antibody was used in 1:1000 dilution and incubated overnight at 4C. Blots were washed 3X and incubated in 1:5000 secondary antibody at RT for 1 h. Blots were incubated with ECL reagent (Biorad) for 5 min. Blots were imaged utilizing ChemDoc Biorad Imager for 3 min taking 60 total images. Results can be found in Supplementary Fig. 2.

kinome = details: ref [5]; cited from earlier work
From the text: (§2) The most significant finding in this manuscript is the nanomolar, highly specific affinity (Fig. 4g) between UA-1907 and the FAK FAT domain by SPR, but not […], PARVA, PARVB, VinH, and VinT. As previously discussed, the challenge of targeting FAK historically has been the off-target effects of ATP-competitive kinase inhibitors. […] The high selectivity of the FAT domain t ...

[2] = ref [5]; cited from earlier work
From the text: as §2

Row | Compound | binding (FAK FAT (a.a. 892–1052)) | binding selectivity across panel [1] | inhibition of FAK-paxillin interaction (FAK-paxillin interaction) | binding to FAK FAT domain (FAK FAT domain) | paxillin pulldown (Paxillin) | kinome selectivity (kinome) | cellular toxicity [2]
1 | CC(=O)N[C@@H](CC(N)=O)C(=O)N[C@@H](CC(C)C)C(=O)N[C@]1(C)CCCCCC/C=C/CCC[C@@](C)(C(=O)N[C@@H](CCC(=O)O)C(=O)N[C@@H](CC(C)C)C(=O)N[C@@H](CC(N)=O)C(N)=O)NC(=O)[C@H](CC(C)C)NC(=O)[C@H](CC(C)C)NC(=O)[C@H](CCCNC(=N)N)NC(=O)[C@H](CC(=O)O)NC(=O)[C@H](CC(C)C)NC(=O)[C@H](CCC(=O)O)NC1=O [UA-1907] | bound to UA-1907 in a dose-dependent manner | only the FAK-FAT domain has a nanomolar binding affinity (KD) for UA-1907, whereas other FA proteins have no binding; also recorded: strong nanomolar binding affinity to the FAT domain of FAK, while minimal affinity to other FA proteins | dose-dependently inhibits the FAK-paxillin interaction | binds the FAK FAT domain with high affinity | paxillin did not pulldown with UA-1907 | – | –
2 | CNC(=O)c1ccc(Nc2ncc(C(F)(F)F)c(NCc3nccnc3N(C)S(C)(=O)=O)n2)cc1 [defactinib] | – | – | – | – | – | poor kinome selectivity | high cellular toxicity
